Where “and” joins values, the source holds several entries; their conditions need not be identical. Identical values can stand only once. Entries after “also recorded” stand apart in the source; their conditions may differ.
Legend:
[1] = biological target: T1, VEGF-C (Homo sapiens, UniProt P49767); experiment: Direct binding ELISA / BiaCore affinity of VGX-100; settings: capture antigens VEGF-C, VEGF-D or VEGF
T1 construct: purchased R&D Systems
T1 sequence (P49767 112-227): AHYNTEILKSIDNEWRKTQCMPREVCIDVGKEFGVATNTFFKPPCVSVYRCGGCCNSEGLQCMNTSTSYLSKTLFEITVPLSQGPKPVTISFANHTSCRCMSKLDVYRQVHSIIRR
Experimental: VEGF-C antibody VGX-100 was assessed by a direct binding ELISA using VEGF-C, VEGF-D or VEGF (R&D Systems) as capture antigens and bound VGX-100 detected with rabbit anti-human IgG-HRP (Abcam).

[2] = system: U87MG glioblastoma tumors (xenograft); experiment: U87MG glioblastoma xenograft, single agent (Example 6)
Experimental: Antibodies were administered twice per week by intraperitoneal injection.
To initiate the study, 5×10^6 of U-87 cells suspended in 100 μl of a mixture of medium/Matrigel (1:1) were subcutaneously implanted to the nude mice in the right flank region. Cancer cells were planted into 80 mice. Animals were monitored for tumor growth daily after cell implantation. When tumor volumes reached 80-100 mm^3, mice were randomized into 5 groups of 10 mice each using only mice having tumor volumes closest to the mean value. Mice with tumor volumes too big or too small were excluded from the study. Tumor volumes were measured using the formula V=L×W×H×π/6, where L and W represented the longer and shorter diameters of the tumor and H represented the height of the tumor. The treatment with drugs was initiated on the day after randomization. […] The treatment was carried out twice weekly for 27 days. Throughout the entire study, tumor volumes were measured twice weekly and body weights once weekly. […] Unscheduled sacrifices were performed if tumor volumes reached>1,500 mm^3, animals lost>25% of their original body weights, tumor ulceration appeared, or mice became moribund.

[3] = system: VEGF-C stimulated HUVEC proliferation; experiment: HUVEC proliferation assay; assay type: cell-based; settings: 48 hrs, WST-1
Experimental: HUVEC proliferation assays were conducted for 48 hrs and cell number measured with WST-1 reagent (Roche).

[4] = biological target: T2, VEGF-C binding to the extracellular domain of VEGFR-2 (Homo sapiens, UniProt P49767); experiment: Ba/F3-VEGFR-2 bioassay of VEGF-C binding; assay type: cell-based; settings: [3H]thymidine incorporation, 48 hrs
T2 construct: expressed in transfected cells; host or cells: Ba/F3 cells (BA/F3-VEGFR-2)
T2 sequence (P49767 112-227 limits assumed): T1 sequence (P49767 112-227)
Experimental: The binding of VEGF-C to the extracellular domain of VEGFR-2 or VEGFR-3 was measured using BA/F3-VEGFR-2 or -3/EpoR cells. The response to ligands and VGX-100 was measured by [^3H]-thymidine incorporation following exposure for 48 hrs.
Bioassays to measure the binding of VEGF-C to the extracellular domain of VEGFR-2 or VEGFR-3 were performed with BA/F3-VEGFR-2 or BA/F3-VEGFR-3/EpoR cells. The response to ligands and VGX-100 was measured by [^3H] thymidine incorporation following exposure for 48 hrs.

[5] = system: PC-3 human prostate carcinoma xenografts; experiment: PC-3 xenograft combination therapy (Example 3, first study);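 further: subcutaneous PC-3 tumors in male athymic NCr nude mice aged 6-7 weeks, combination agents dosed within 30 min of each other, animals euthanized once tumors exceeded 2 g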
Experimental: Docetaxel was administered intravenously at 10 mg/kg weekly for three injections.
HIgG1 Isotype control-humanised antibody (6.4-12.36 mg/ml) and VGX-100 (5.53 and 5.75 mg/ml) were provided as frozen colorless stock solutions in Dulbecco's phosphate buffered saline (DPBS) and stored from light at −80° C. The stock solutions were thawed and stored at 4° C. when treatment began. The dosing solutions (40 mg/kg in 0.2 ml/20 g body weight) were prepared by diluting the stock solution with DPBS. The resulting formulations were clear with pH values ranging from 7.02-7.21. The dosing vials were kept on wet ice during dosing, gently pipetted and not aspirated through a needle except during administration. Dosing solutions were prepared weekly in DPBS and stored protected from light at 4° C. while not in use.
Docetaxel (lot no. D9A095) was manufactured by Sanofi-Aventis and obtained from McKesson as a pale yellow solution in 50% EtOH/50% Tween80. It was stored protected from light at 4° C. Docetaxel was diluted as directed on the package insert with the provided diluent (sterile water) to produce a clear and colorless 10 mg/ml stock solution. On each treatment day, a fresh 10 mg/ml stock was prepared and further diluted with water to achieve the appropriate concentration. The resulting solution was clear and colorless with a pH of 7.16.
All test articles were administered within two hours of preparation. For groups receiving combination therapy, the drugs were administered in the order presented in Table 1 and within 30 minutes of one another.
Male NCR(NCRNU-M) athymic mice were obtained from Taconic. They were 6-7 weeks old on Day 1 of the experiment. The mice were fed irradiated Rodent Diet 5053 (LabDiet™) and water ad libitum. The mice were housed in static cages with Bed-O'Cobs™ bedding inside Biobubble® Clean Rooms that provide H.E.P.A filtered air into the bubble environment at 100 complete air changes per hour. All treatments, body weight determinations, and tumor measurements were carried out in the bubble environment. The environment was controlled to a temperature range of 21.1±1.1° C. (70±2° F.) and a humidity range of 30-70%.
Test mice were implanted subcutaneously on Day 0. […] Mice with tumors in excess of 2 g or with ulcerated tumors were euthanized, as were those found in obvious distress or in a moribund condition.
PC-3 cells were obtained from ATCC and expanded using Ham's F-12 media supplemented with 10% fetal bovine serum and 1% penicillin-streptomycin-glutamine in 5% CO2 atmosphere at 37° C. When expansion was complete, the cells were collected using Trypsin (Cell Gro®), the trypsin neutralized, and the cells pooled for implantation. The PC-3 (Passage 10) cell suspension was counted using trypan blue exclusion with a hemacytometer. The cell suspension was reduced to a pellet using an Eppendorf 5810R centrifuge at 1500 rpm (300×g) for 5 minutes at 4° C. A 2.5×10^7 cells/ml suspension was prepared in 50% serum free media and 50% Matrigel®. Pre-injection viability was 97.7%. Test animals were implanted subcutaneously on Day 0 with 5×10^6 cells/animal (0.2 ml) using a 27-gauge needle and syringe. The cell suspension was maintained on wet ice to minimize the loss of viability and inverted frequently to maintain a uniform cell suspension during the inoculation procedure.
Treatments began on Day 8, when the mean estimated tumor mass for all groups in the experiment was 129 mg (range of group means, 123-134 mg). All animals weighed≧19.2 g at the initiation of therapy. Mean group body weights at first treatment were matched (range of group means, 21.5-22.8 g). All animals were dosed according to individual body weight on the day of treatment (0.2 ml/20 g).

[6] = system: KP4 human pancreatic tumors; experiment: KP4 pancreatic xenograft (Example 8); settings: for % T/C: after 30 days
Experimental: VGX-100 was administered at 20 or 40 mg/kg for single therapy and at 40/mg/kg for combination therapy.
To initiate the study, 5×10^6 of KP4 cells suspended in 100 μl of a mixture of medium/Matrigel (1:1) were subcutaneously implanted to the nude mice in the right flank region. Cancer cells were implanted into 90 mice. Animals were monitored for tumor growth daily after cell implantation. When tumor volumes reached 80-100 mm^3, mice were randomized into 5 groups of 10 mice each using only mice having tumor volumes closest to the mean value. Mice with tumor volumes too big or too small were excluded from the study. Tumor volumes were measured using the formula V=L×W×H×π/6, where L and W represented the longer and shorter diameters of the tumor and H represented the height of the tumor. The treatment with drugs was initiated on the day after randomization. […] All treatments were administered intraperitoneally twice weekly for 30 days.
Throughout the entire study, tumor volumes were measured twice weekly and body weights once weekly. […] Unscheduled sacrifices were performed if tumor volumes reached>2,000 mm^3, animals lost>25% of their original body weights, tumor ulceration appeared, or mice became moribund. At the end of the experiment, tumors were removed, embedded in Optimal Cutting Temperature (OCT), and stored at −80° C. for IHC analysis. Gross examination was conducted on liver, lung, spleen, kidneys, testes, and prostate. If no abnormal observation was detected on these organs, the tissues were discarded.
Tumor size was measured 2-3 times weekly with calipers. Size of tumors relative to controls is calculated after 30 days of treatment.

[7] = system: PC-3-GFP human prostate tumors; experiment: PC-3-GFP orthotopic MetaMouse model (Example 13); assay type: in vivo
Experimental: PC-3-GFP human prostate cancer orthotopic MetaMouse® model was conducted by AntiCancer Inc. PC-3-GFP tumor fragments were surgically implanted between the ventral lobes of the prostate and closed by suture. Treatment was started three days after surgery (60 mg/kg, 3×/week, IP). Whole body imaging of GFP-expressing tumors was performed once a week in live animals after GFP-visible tumors were established. Primary tumor sizes were estimated once a week by caliper measurement and tumor volume (mm^3) calculated by the formula (L×W2)/2. Details of the study are as follows:
Male NCr nu/nu mice, 5-6 weeks old, were used in the study. Original breeding pairs were purchased from Taconic, Germantown, N.Y. Test animals were bred and maintained in a HEPA filtered environment for the experiment. Cages, food and bedding were autoclaved. The animal diets were obtained from PMI Nutrition International Inc. (Brentwood, Mo.).
Vehicle, VGX-100 and Isotype were kept at −20° C. until use. VGX-100 and Isotype were diluted with PBS to proper concentration (7.5 mg/ml and 7.5 mg/ml) before use.
Tumor stocks were made by subcutaneously injecting PC-3-GFP cells at a concentration of 5×10^6 cells/100 μl into the flank of nude mice. The tumor tissues harvested from s.c. growth in nude mice were inspected and any grossly necrotic or suspected necrotic or non-GFP tumor tissues were removed. Tumor tissues were subsequently cut into small fragments of approximately 1 mm^3.
The animals were anesthetized with the mixture of Ketaset, Xylazine and PromAce and the surgical area was sterilized using iodine and alcohol. An incision approximately 2 cm long was made in the lower abdomen of the nude mouse using a sterile scalpel and blade (#10). The prostate was exposed and the capsule of the prostate was carefully opened. Two fragments (1 mm^3 each) of PC-3-GFP tissue were sutured between two ventral lobes of the prostate with sterile 8-0 surgical suture (nylon). The abdomen was closed in one layer with sterile 6-0 surgical sutures (silk). All procedures were carried out under a 5× dissecting microscope under HEPA filtered laminar flow hoods.
Treatment in both groups was started three days after SOI.
The FluorVivo imaging system (INDEC Biosystems, Santa Clura, Calif.) was used for whole body imaging. Whole body optical imaging of GFP-expressing tumors was performed once a week in live animals after GFP-visible tumors were established. At necropsy, open imaging was performed in the thoracic and abdomen for inspection of metastasis to the lymph nodes.
Tumor size and body weight measurement: Primary tumor sizes and body weights were measured once a week by using a calipers and an electronic scale, respectively. Primary tumor sizes were estimated once a week by measuring the perpendicular minor dimension (W) and major dimension (L). Approximate tumor volume (mm^3) was calculated by the formula (W2×L)×1/2.
All the animals were sacrificed at day 30 after treatment initiation.
Primary tumor was excised and weighed at necropsy.
The Student's t-test with α equal to 0.05 was used to compare the mean tumor volume and tumor weight among the experimental groups.

[8] = VGX-100 40 mg/kg and/or Avastin 10 mg/kg

For “VGX-100: VEGF-C antibody; heavy chain SEQ ID NO: 3, light chain SEQ ID NO: 4”, the “Binding selectivity in direct binding ELISA” value [1] was “selectively recognized and bound to VEGF-C”, the “Tumor growth vs vehicle control” value ([2]; VGX-100 40 mg/kg IP twice weekly) was “significantly inhibited tumor growth” and the “Tumor volume response” value ([2]; VGX-100 10 and 20 mg/kg IP twice weekly) was “improved over the negative control”. For the same substance, the “Inhibition of VEGF-C stimulated HUVEC proliferation” value [3] was “inhibited VEGF-C stimulated HUVEC proliferation”, the “Blocking of VEGF-C binding to VEGFR-2” value [4] was “blocked VEGF-C binding” and the “Time to evaluation size” value ([5]; 750 mg, individual animals) was 39.5 days and 22.8 days and 19.9 days and 22.3 days and 33.5 days and 18.5 days and 31.1 days and 19.4 days and 22.0 days and 22.2 days. The “Tumor Growth Delay” value ([5]; T-C, evaluation size 750 mg, same doses) was 2.2 days, the “% T/C Day 22” value ([5]; VGX-100 40 mg/kg IP, bevacizumab 10 mg/kg IP, docetaxel 10 mg/kg IV, median tumor mass vs control) was 87% and the “% T/C: tumor burden in treatment group compared to control” value ([5]; at day 160) was 97.9%. For the same substance, the “% TFS (tumor free survivors)” value ([5]; at termination, Day 160, same doses) was 0%, the “Td” value ([5]; group mean) was 8.3 days and the “Time to evaluation size” value ([5]; group mean) was 25.1 days. The “Time to fold growth EP” value ([5]; group mean) was 20.4 days, the “Td” value ([5]; group median) was 6.2 days and the “Time to evaluation size” value ([5]; group median) was 22.2 days. For the same substance, the “Time to fold growth EP” value ([5]; group median) was 20.8 days, the “Time to fold growth EP” value ([5]; individual animals) was 27.4 days and 20.9 days and 16.4 days and 21.5 days and 28.2 days and 13.9 days and 21.3 days and 15.8 days and 17.9 days and 20.7 days and the Complete regression ([5]; individual animals, yes/no) was “no”. For the same substance, the Partial regression ([5]; individual animals, yes/no) was “no”, the Tumor free survivor ([5]; individual animals, yes/no) was “no” and the “Total CR” value ([5]; number of animals of 10) was 0. For the same substance, the “Total PR” value ([5]; number of animals of 10) was 0, the “Total TFS” value ([5]; number of animals of 10) was 0 and the “% CR (complete regression)” value ([5]; same doses) was 0%. For the same substance, the “% PR (partial regression)” value ([5]; same doses) was 0%, the “Anticancer activity of regimen” value ([5]; same doses) was “ineffective” and the “Apparent Net Tumor Cell Kill (logs)” value ([5]; same doses) was −2.85 logs. The “Tumor regressions” value ([5]; same doses) was “Nor tumor regressions were observed”, the “Td” value ([5]; tumor doubling time, individual animals) was 16.6 days and 5.1 days and 6.0 days and 6.1 days and 14.1 days and 5.7 days and 12.3 days and 6.3 days and 7.1 days and 3.8 days and the “Mean Tumor Vol. at D30 (mm3)” value ([6]; VGX-100 20 mg/kg) was 1492.77 mm3. For the same substance, the “Mean Tumor Vol. at D30 (mm3)” value [6, 8] was 693.24 mm3, the “Mean Tumor Vol. at D30 (mm3)” value ([6]; VGX-100 60 mg/kg) was 958.93 mm3 and the “% T/C” value ([6]; VGX-100 20 mg/kg) was 76.0%. The “% T/C” value [6, 8] was 35.3%, the “% T/C” value ([6]; VGX-100 60 mg/kg) was 48.8% and the “Reduction of incidence of metastasis to local lymph nodes vs control” value ([7]; 60 mg/kg IP) was 55%. The “Toxicity / body weight” value ([7]; 60 mg/kg IP 3x/week) was “no obvious toxicity; also recorded: No acute body weight loss”, the “Metastatic incidence to lymph nodes vs control” value ([7]; FOTI, Fisher's exact test) was “significant difference in metastatic incidence” and the “# of animals with lymph node (LN) mets” value ([7]; FOTI, of 19 analyzed animals, 60 mg/kg IP) was 6. For the same substance, the “Animals with lymph node (LN) mets, percent” value ([7]; FOTI, 60 mg/kg IP) was 32%, the “Tumor volume vs isotype control” value ([7]; day 28) was “statistically significant reduction” and the “Reduction of mean tumor volume vs isotype control” value ([7]; day 28, 60 mg/kg IP) was 59%. The “Mean tumor volume (mm^3) mean ± SE” value ([7]; day 28 after treatment, caliper, 60 mg/kg IP 3x/week) was 176.8 ± 183.2 mm^3, the “Tumor weight vs isotype control” value ([7]; day 30) was “A statistically significant reduction was not observed” and the “Mean tumor weight (g) mean ± SE” value ([7]; day 30 after treatment, 60 mg/kg IP) was 0.95 ± 0.45 g.

From patent US20130344065A1, “Combination Treatment with VEGF-C Antagonists” (Vegenics Pty Ltd, priority 2010, published 2013)
